Data from PubChem BioAssay AID1918952 (Molecular Pharmacology Branch, DTP, NCI, 2023).

Test system: LG0703-F948-PDC complex spheroid viability
Test: Anticancer human tumor LG0703-F948-PDC patient-derived lung adenocarcinoma cell line growth inhibition
Conditions: for IC50: curve of first compound; for viability, T/C: stronger effect = lower value
In short: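 Multicellular complex spheroids of tumor cells with human endothelial cells (HUVEC) and mesenchymal stem cells; the LSD1 inhibitor iadademstat was combined with standard-of-care or investigational agents. Top concentration at or near clinical Cmax, half-log dilutions; final DMSO ≤0.25%.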

[1] = second compound 0.1 µM, first compound 0.00949 µM
[2] = second compound 0.1 µM, first compound 0.03 µM
[3] = second compound 0.1 µM, first compound 0.0949 µM
[4] = second compound 0.1 µM, first compound 0.3 µM
[5] = second compound 0.1 µM, first compound 0.949 µM
[6] = second compound 0.1 µM, first compound 3 µM
[7] = second compound 0.316 µM, first compound 0.00949 µM
[8] = second compound 0.316 µM, first compound 0.03 µM
[9] = second compound 0.316 µM, first compound 0.0949 µM
[10] = second compound 0.316 µM, first compound 0.3 µM
[11] = second compound 0.316 µM, first compound 0.949 µM
[12] = second compound 0.316 µM, first compound 3 µM
[13] = second compound 1 µM, first compound 0.00949 µM
[14] = second compound 1 µM, first compound 0.03 µM
[15] = second compound 1 µM, first compound 0.0949 µM
[16] = second compound 1 µM, first compound 0.3 µM
[17] = second compound 1 µM, first compound 0.949 µM
[18] = second compound 1 µM, first compound 3 µM
[19] = second compound 3.16 µM, first compound 0.00949 µM
[20] = second compound 3.16 µM, first compound 0.03 µM
[21] = second compound 3.16 µM, first compound 0.0949 µM
[22] = second compound 3.16 µM, first compound 0.3 µM
[23] = second compound 3.16 µM, first compound 0.949 µM
[24] = second compound 3.16 µM, first compound 3 µM
[25] = second compound 10 µM, first compound 0.00949 µM
[26] = second compound 10 µM, first compound 0.03 µM
[27] = second compound 10 µM, first compound 0.0949 µM
[28] = second compound 10 µM, first compound 0.3 µM
[29] = second compound 10 µM, first compound 0.949 µM
[30] = second compound 10 µM, first compound 3 µM
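Further: spheroids exposed to agents for seven days before readout.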
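Wherever viability, T/C is given: 100% = DMSO vehicle control wells as normalization base.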

SMILES	IC50 (second compound 0.1 µM) [µM]	IC50 (second compound 0.316 µM) [µM]	IC50 (second compound 1 µM) [µM]	IC50 (second compound 3.16 µM) [µM]	IC50 (second compound 10 µM) [µM]	viability, T/C [1] [%]	viability, T/C [2] [%]	viability, T/C [3] [%]	viability, T/C [4] [%]	viability, T/C [5] [%]	viability, T/C [6] [%]	viability, T/C [7] [%]	viability, T/C [8] [%]	viability, T/C [9] [%]	viability, T/C [10] [%]	viability, T/C [11] [%]	viability, T/C [12] [%]	viability, T/C [13] [%]	viability, T/C [14] [%]	viability, T/C [15] [%]	other results
CCN(c1cc(-c2ccc(CN3CCOCC3)cc2)cc(C(=O)NCc2c(C)cc(C)[nH]c2=O)c1C)C1CCOCC1 + NC1CCC(NC2CC2c2ccccc2)CC1	> 3	> 3	> 3	> 3	> 3	105	106	96.2	108	119	128	107	130	106	112	111	112	128	116	113	viability, T/C [16]: 133%; viability, T/C [17]: 128%; viability, T/C [18]: 127%; viability, T/C [19]: 124%; viability, T/C [20]: 131%; viability, T/C [21]: 144%; viability, T/C [22]: 138%; viability, T/C [23]: 121%; viability, T/C [24]: 141%; viability, T/C [25]: 120%; viability, T/C [26]: 131%; viability, T/C [27]: 134%; viability, T/C [28]: 118%; viability, T/C [29]: 118%; viability, T/C [30]: 105%
COc1cc(C2c3cc4c(cc3C(OC3OC5COC(C)OC5C(O)C3O)C3COC(=O)C23)OCO4)cc(OC)c1O (stereo not given) + NC1CC1c1ccc(-c2cccc(O)c2)cc1	> 3	> 3	> 3	> 3	> 3	117	126	101	98.5	89.5	66.9	117	111	106	88.4	92.2	75.4	104	115	105	viability, T/C [16]: 95.9%; viability, T/C [17]: 105%; viability, T/C [18]: 77.8%; viability, T/C [19]: 102%; viability, T/C [20]: 121%; viability, T/C [21]: 117%; viability, T/C [22]: 100%; viability, T/C [23]: 88.1%; viability, T/C [24]: 86.2%; viability, T/C [25]: 104%; viability, T/C [26]: 116%; viability, T/C [27]: 99.9%; viability, T/C [28]: 103%; viability, T/C [29]: 81.6%; viability, T/C [30]: 66.8%
COc1cc(C2c3cc4c(cc3C(OC3OC5COC(C)OC5C(O)C3O)C3COC(=O)C23)OCO4)cc(OC)c1O (stereo not given) + NC1CCC(NC2CC2c2ccccc2)CC1	> 3	> 3	> 3	> 3	> 3	99.9	104	94.8	87.6	72.2	58.2	106	108	90.7	87.6	77.8	65	113	127	108	viability, T/C [16]: 99.3%; viability, T/C [17]: 91.4%; viability, T/C [18]: 73.7%; viability, T/C [19]: 120%; viability, T/C [20]: 105%; viability, T/C [21]: 112%; viability, T/C [22]: 108%; viability, T/C [23]: 98.5%; viability, T/C [24]: 86.8%; viability, T/C [25]: 104%; viability, T/C [26]: 115%; viability, T/C [27]: 118%; viability, T/C [28]: 86.2%; viability, T/C [29]: 97.5%; viability, T/C [30]: 81.4%
